Experimental data: patent publication US11286268B1, “EIF4E-inhibiting compounds and methods” (EFFECTOR THERAPEUTICS, INC., priority 2019, dated 2022)
Read-outs that look alike come from different tables or passages of the source.

Molecular target: recombinant eIF4E (Homo sapiens (Human), UniProt P06730)
Test: Fluorescence polarization competition assay for eIF4E binding potency
Summary of the method: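 Competitive displacement format: compounds compete with a fluorescent m7GDP tracer (20 nM) for 75 nM recombinant eIF4E. Incubation is 30 min at room temperature, protected from light, with 1% DMSO. Polarization read gives IC50 over eight 3-fold concentrations.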

[1] = fluorescence polarization competition, 75 nM recombinant eIF4E, 20 nM EDA-m7GDP-ATTO-550, IC50 class, read-out: elF4E FP
[2] = inhibition of eIF4E/EDA-m7GDP-ATTO-550 binding by 50%, Table 4B calculated values, read-out: IC50
[3] = inhibition of eIF4E/EDA-m7GDP-ATTO-550 binding, calculated IC50 values, Table 4B, read-out: IC50

recombinant eIF4E, sequence (P06730 whole entry): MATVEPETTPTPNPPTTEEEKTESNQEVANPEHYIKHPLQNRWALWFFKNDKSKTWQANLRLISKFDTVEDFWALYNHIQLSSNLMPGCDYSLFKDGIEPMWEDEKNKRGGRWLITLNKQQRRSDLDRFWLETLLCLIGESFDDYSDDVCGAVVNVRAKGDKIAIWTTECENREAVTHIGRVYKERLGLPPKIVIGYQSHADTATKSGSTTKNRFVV

SMILES	IC50 [1] [nM]	IC50 [2] [nM]	IC50 [3] [nM]
Cc1ccc(C#N)c2c(=O)n(CCOc3ccc(Cl)cc3-c3ccnc4c(C(=O)O)csc34)c(C)nc12 [compound 574]	50 to 1000	57.5	–
Cc1nc2cnc(N(C)C3CCN(C4(C)CC4)CC3)c(C#N)c2c(=O)n1CC#Cc1ccc(Cl)cc1-c1ccnc2c(C(=O)O)csc12 [compound 1524]	–	–	12.5
Cc1nc2cncc(C#N)c2c(=O)n1CCOc1ccc(Cl)cc1-c1ccnc(C(=O)O)c1 [compound 35]	< 50	44.3	–
C#Cc1c(-c2cc(Cl)ccc2OCCn2c(C(F)F)nc3cccc(C#N)c3c2=O)ccnc1C(=O)O [compound 163]	50 to 1000	95.5	–
Cc1nc2cnc(N3CCN(CC(F)F)CC3)c(C#N)c2c(=O)n1CC#Cc1ccc(Cl)cc1-c1ccnc2c(C(=O)O)csc12 [compound 1356]	–	–	23.2
Cc1nc2cnc(C3=CCN(CC(F)F)CC3)c(C#N)c2c(=O)n1CC#Cc1ccc(Cl)cc1-c1ccnc2c(C(=O)O)csc12 [compound 1463]	–	–	22.9
Cc1cnc(-c2nc3c(=O)n(CCOc4ccc(Cl)cc4-c4cc(C)nc5c(C(=O)O)csc45)c(C)nc3cc2C(F)(F)F)c(Cl)n1 [compound 1024]	< 50	24.2	–
Cc1nc2c(C(F)(F)F)ccc(C#N)c2c(=O)n1CCOc1ccc(Cl)cc1-c1ccnc2c(C(=O)O)csc12 [compound 358]	50 to 1000	86.3	–
Cc1cc(-c2cc(Cl)ccc2OCCn2c(C)nc3cncc(C#N)c3c2=O)c2scc(C(=O)O)c2n1 [compound 597]	< 50	46.8	–
CCN(c1ncc2nc(C)n(CC#Cc3ccc(Cl)cc3-c3ccnc4c(C(=O)O)csc34)c(=O)c2c1C#N)C1CCN(CC(F)F)CC1 [compound 1535]	–	–	17.4
Cc1nc2cnc(N3CCN(C(C)(C)C(F)(F)F)CC3)c(C#N)c2c(=O)n1CCOc1ccc(Cl)cc1-c1ccnc2c(C(=O)O)csc12 [compound 1316]	–	–	32.8
Cc1cc(-c2c(C(F)(F)F)cc3nc(C)n(CCOc4ccc(Cl)cc4-c4cc(C)nc5c(C(=O)O)csc45)c(=O)c3c2C#N)ccn1 [compound 341]	< 50	45	–
Cc1cc(-c2cc(Cl)ccc2OCCn2c(C)nc3cc(C(F)(F)F)c(-c4cncc(F)c4)c(C#N)c3c2=O)c2scc(C(=O)O)c2n1 [compound 342]	< 50	47.4	–
Cc1nc2cnc(N(C)C3CCN(CC(C)(F)F)CC3)c(C#N)c2c(=O)n1CC#Cc1ccc(Cl)cc1-c1ccnc2c(C(=O)NS(=O)(=O)c3ccccn3)csc12 [compound 1146]	< 50	14.4	–
Cc1nc2cc(C(F)F)cc(C#N)c2c(=O)n1CCOc1ccc(Cl)cc1-c1cccc(C(=O)O)c1 [compound 153]	50 to 1000	54	–
Cc1nc2cc(C(F)(F)F)cc(C#N)c2c(=O)n1CCOc1ccc(Cl)cc1-c1cncc2c(C(=O)O)csc12 [compound 319]	50 to 1000	53.5	–
O=C(O)c1cccc(-c2cc(Cl)ccc2OCCn2cnc3nccnc3c2=O)c1 [compound 19]	50 to 1000	838	–
Cc1nc2cc(C(F)(F)F)c(N3CCN(C4CC4)CC3)c(C#N)c2c(=O)n1CCOc1ccc(Cl)cc1-c1ccnc2c(P(=O)(O)O)csc12 [compound 1615]	–	–	14.7
Cc1cc(-c2cc(Cl)ccc2OCCn2c(C)nc3cc(C(F)(F)F)cc(C#N)c3c2=O)cc(C(=O)O)n1 [compound 410]	50 to 1000	62.6	–
CCc1ncccc1-c1c(C(F)(F)F)cc2nc(C)n(CCOc3ccc(Cl)cc3-c3cc(C)nc4c(C(=O)O)csc34)c(=O)c2c1C#N [compound 466]	< 50	9.3	–
CC(=O)NS(=O)(=O)c1csc2c(-c3cc(Cl)ccc3OCCn3c(C)nc4c(F)cc(C(F)F)c(C#N)c4c3=O)cc(C)nc12 [compound 570]	< 50	5.57	–
Cc1nc2cnc(N(C)[C@H]3[C@@H]4CC[C@H]3CN(CC(C)(F)F)C4)c(C#N)c2c(=O)n1CC#Cc1ccc(Cl)cc1-c1ccnc2c(C(=O)O)csc12 [compound 1690]	–	–	27.4
Cc1cc(-c2cc(Cl)ccc2OCCn2c(C)nc3c(C(F)(F)F)cc(Cl)nc3c2=O)c2scc(C(=O)O)c2n1 [compound 680]	50 to 1000	56.6	–
Cc1cc(-c2cc(Cl)ccc2OCCn2c(C)nc3cc(C(F)(F)F)c(-c4ccccn4)cc3c2=O)c2scc(C(=O)O)c2n1 [compound 426]	< 50	41.2	–
Cc1nc2cc(C(F)(F)F)cc(C#N)c2c(=O)n1CCOc1ccc(Cl)cc1-c1ccc(F)c2c(C(=O)O)csc12 [compound 122]	< 50	24.4	–
COc1ccc2nc(C)n(CCOc3ccc(Cl)cc3-c3ccnc4c(C(=O)O)csc34)c(=O)c2c1C#N [compound 404]	< 50	10.1	–
Cc1nc2cnc(N3CC4CC3CN4C)c(C#N)c2c(=O)n1CCOc1ccc(Cl)cc1-c1ccnc2c(C(=O)O)csc12 (stereo not drawn) [compound 1645]	–	–	23.2

SMILES	IC50 [1] [nM]	IC50 [2] [nM]	IC50 [3] [nM]
Cc1nc2cnc(N(C)C3CCN(C4(CF)CC4)CC3)c(C#N)c2c(=O)n1CCOc1ccc(Cl)cc1-c1ccnc2c(C(=O)O)csc12 [compound 1428]	–	–	12.2
Cc1cc(-c2cc(Cl)ccc2OCCn2c(C)nc3cc(C(F)(F)F)c(N4CCCCC4)c(C#N)c3c2=O)c2scc(C(=O)O)c2n1 [compound 423]	< 50	8.84	–
N#Cc1cc2c(=O)n(CCOc3ccc(Cl)cc3-c3ccc(C(=O)O)s3)cnc2cn1 [compound 53]	50 to 1000	931	–
Cc1cc(-c2cc(Cl)ccc2OCCn2c(C)nc3cc(CCCN(C)C)c(Cl)c(C#N)c3c2=O)c2scc(C(=O)O)c2n1 [compound 606]	< 50	4.12	–
CCc1cc(-c2cc(Cl)ccc2OCCn2c(C)nc3c(Cl)nc(C4CC4)c(C#N)c3c2=O)c2scc(C(=O)O)c2n1 [compound 1198]	< 50	–	13
Cc1nc2cnc(N(C)C3CCN([C@H]4C[C@@H](OC(F)(F)F)C4)CC3)c(C#N)c2c(=O)n1CC#Cc1ccc(Cl)cc1-c1ccnc2c(C(=O)NS(=O)(=O)C3COC3)csc12 [compound 1610]	–	–	6.02
Cc1cc(-c2cc(Cl)ccc2OCCn2c(C)nc3c(C)nc(N4CCNCC4)c(C#N)c3c2=O)c2scc(C(=O)O)c2n1 [compound 878]	< 50	9.63	–
CCN(c1ncc2nc(C)n(CC#Cc3ccc(Cl)cc3-c3ccnc4c(C(=O)NS(=O)(=O)c5ccccn5)csc34)c(=O)c2c1C#N)C1CCN(C2COC2)CC1 [compound 1742]	–	–	5.43
CNc1ncc2nc(C)n(CCOc3ccc(Cl)cc3-c3cc(C)nc4c(C(=O)O)csc34)c(=O)c2c1C#N [compound 985]	< 50	6.69	–
Cc1cc2cc(C(F)(F)F)c(N3CCN(C)CC3)c(C#N)c2c(=O)n1CCOc1ccc(Cl)cc1-c1ccnc2c(C(=O)O)csc12 [compound 1240]	< 50	–	15.5
Cc1nc2ccc3c(c2c(=O)n1CCOc1ccc(Cl)cc1-c1cccc(C(=O)O)c1)C(=O)N(C)C3 [compound 2011]	–	–	529
O=C(O)c1cccc(-c2cc(Cl)ccc2OCCn2cnc3cnc(Sc4ccccc4)cc3c2=O)c1 [compound 26]	50 to 1000	919	–
Cc1nc2cnc(N3CCC4(CC3)CN(CC(C)(F)F)C4)c(C#N)c2c(=O)n1CC#Cc1ccc(Cl)cc1-c1ccnc2c(C(=O)O)csc12 [compound 1137]	< 50	17.4	–
Cc1cc(-c2cc(Cl)ccc2OCCn2c(C)nc3cnc(N4CCN(C)CC4)c(C#N)c3c2=O)c2scc(C(=O)O)c2n1 [compound 1145]	< 50	33.1	–
Cc1nc2c(F)cc(C(F)F)c(C#N)c2c(=O)n1CCOc1ccc(Cl)cc1-c1ccnc2c(C(=O)O)csc12 [compound 22]	< 50	24.9	–
Cc1nc2cc(C(F)(F)F)c(CN(C)CC(F)F)c(C#N)c2c(=O)n1CCOc1ccc(Cl)cc1-c1ccnc2c(C(=O)O)csc12 [compound 525]	< 50	34.7	–
Cc1nc2cnc(N(C)C3CCN([C@H]4C[C@H](OC(F)F)C4)CC3)c(C#N)c2c(=O)n1CC#Cc1ccc(Cl)cc1-c1ccnc2c(C(=O)NS(=O)(=O)c3ccncc3)csc12 [compound 1764]	–	–	19
Cc1nc2cnc(CCN(C)CC(F)F)c(C#N)c2c(=O)n1CCOc1ccc(Cl)cc1-c1ccnc2c(C(=O)O)csc12 [compound 1485]	–	–	22.9
Cc1cc(-c2cc(Cl)ccc2OCCn2c(C)nc3cc(C(F)(F)F)c(N4CCN(C)C(C(F)(F)F)C4)c(C#N)c3c2=O)c2sc(C)c(C(=O)O)c2n1 (stereo not drawn) [compound 1207]	50 to 1000	–	121
Cc1cc(-c2cc(Cl)ccc2OCCn2c(C)nc3ccc(N4CCC(O)C4)c(C#N)c3c2=O)c2scc(C(=O)O)c2n1 (stereo not drawn) [compound 1280]	–	–	4.26
Cc1nc2c(F)c(Cl)c(C(F)F)c(C#N)c2c(=O)n1CCOc1ccc(Cl)cc1-c1ccnc2c(C(=O)O)csc12 [compound 498]	< 50	24.2	–
Cc1nc2cnc(N3CC4(CCN4CC(C)(C)F)C3)c(C#N)c2c(=O)n1CCOc1ccc(Cl)cc1-c1ccnc2c(C(=O)O)csc12 [compound 1635]	–	–	21.5
N#Cc1cc(C(F)(F)F)cc2ncn(CCOc3ccc(Cl)cc3-c3ccnc4c(C(=O)O)csc34)c(=O)c12 [compound 1899]	–	–	16.4
Cc1nc2c(N3CCN(CCOC(F)(F)F)CC3)ncc(C#N)c2c(=O)n1CCOc1ccc(Cl)cc1-c1ccnc2c(C(=O)O)csc12 [compound 1395]	–	–	29.6
Cc1cc(-c2cc(Cl)ccc2OCCn2c(C)nc3cc(C(F)(F)F)c(-c4cnn(C)c4C)c(C#N)c3c2=O)c2scc(C(=O)O)c2n1 [compound 1032]	< 50	6.2	–
Cc1cc(-c2cc(Cl)ccc2OCCn2c(C)nc3cc(C(F)(F)F)c(-c4ccccn4)c(C#N)c3c2=O)c2sc(C)c(C(=O)O)c2n1 [compound 421]	< 50	–	–
